Results on two molecules are retold here after patent US20210308057A1, “PEDIATRIC FORMULATION OF TYROSINE KINASE INHIBITORS” (IGIA Pharmaceuticals, Inc., priority 2020, published 2021).

By AUC is commonly meant the area under the concentration-time curve, a measure of exposure.

The nature of series [1]: Stock solution stability (bioanalytical stock solutions). Type of series: physicochemical. Conditions: polypropylene container.
Series [2] can be described thus: Nonclinical PK/PD study of low-dose dasatinib in NS and NSML mice for hypertrophic cardiomyopathy. Conditions: mouse, in vivo, doses 0.05 mg/kg to 0.5 mg/kg, based on exposure-response relationship, read-out: suggested potential target AUC for cardiac rescue. The protocol: A nonclinical study in mice was conducted to determine the PK and PD properties of a low-dose treatment of dasatinib in NS and NSML mice for the treatment of Hypertrophic cardiomyopathy (HCM). The goal was to establish in the same mouse model concurrent PK data and to correlate that with the endpoints of HCM using qPCR and immunoblotting. PK properties obtained from these mice were determined by Kana Mizuno and Alexander A. Vinks at Cincinnati Children's Hospital Medical Center. Dasatinib PK profiles and exposures (expressed as area under the concentration time curve; AUC) at doses ranging from 0.05 mg/kg to 0.5 mg/kg were estimated in NS and NSML mice. Based on the exposure-response relationship, potential target exposures to protect cardiac function were identified.

For `[2H]C1([2H])N(CCO)C([2H])([2H])C([2H])([2H])N(c2cc(Nc3ncc(C(=O)Nc4c(C)cccc4Cl)s3)nc(C)n2)C1([2H])[2H]` [Dasatinib-D8], the entries for the “Stock Stability” value in series [1] (storage temperature 22° C.) and in series [1] (storage temperature −20° C.) were 25 h and 1010 h, respectively.

For the molecule `Cc1nc(Nc2ncc(C(=O)Nc3c(C)cccc3Cl)s2)cc(N2CCN(CCO)CC2)n1` [Dasatinib], the AUC in series [2] fell in the range of 12 to 24 ng·h/mL. In addition, the “Stock Stability” value amounted to 25 h in series [1] (storage temperature 22° C.) and 1010 h in series [1] (storage temperature −20° C.).
